Data published in PMC4000412, “Novel LHRH-receptor-targeted cytolytic peptide, EP-100: first-in-human phase I study in patients with advanced LHRH-receptor-expressing solid tumors” (Cancer Chemotherapy and Pharmacology, 2014).
“Also recorded” adds a separate entry of the source. Peptide text beside a SMILES is read from it.

Columns and labels:
[1] = Phase I dose-escalation safety: MTD, DLT, adverse events (NCI CTCAE 3.0); type: in vivo, human
Description: An open-label dose-escalation study was conducted at three centers after review and approval by each centers’ Institutional Review Board. Patients’ written informed consent was provided prior to study enrollment. The primary objectives of the study were to determine the maximum-tolerated dose (MTD) of EP-100 by intravenous (IV) infusion and to describe any dose limiting toxicities (DLT), which would inform the recommended phase 2 dose (RP2D) of EP-100 for future phase 2 protocols. Secondary objectives included: (a) to profile the PK and PD of EP-100, (b) to assess any drug immunogenicity by antidrug antibodies (ADA) which may react with endogenous LHRH, (c) to monitor biomarkers of pharmacologic activity of EP-100 and (d) to assess antitumor activity of EP-100 by radiographic assessments.
Cohorts of three patients were enrolled in a 3 + 3 dose-escalation design. […] A conservative first-in-human starting dose of 0.6 mg/m^2 was chosen, based on the repeat-dose toxicity studies in dogs (which appeared to be the most sensitive species). The initial dose schedule of one 30 min infusion weekly was predicted from animal PK profiles. Dosing frequency and infusion time were increased in subsequent cohorts by two protocol amendments. To increase the cumulative dose-exposure to EP-100, infusions were increased to twice weekly after conducting safety assessments in the first seven cohorts (n = 21 patients, at dose levels 0.6–7.8 mg/m^2). Twice weekly infusions effectively doubled the EP-100 delivered in all patients after cohort 7. The infusion time for the twice weekly doses also was increased from 30 to 60 min beginning with one patient in cohort 8 (dose level 11.7 mg/m^2), which decreased the intensity of infusion reactions (described below).
The absence of grade 2 drug-related toxicities in lower dose cohorts allowed 100 % dose acceleration. In the event of grade 2 or higher non-DLT in one or more patients, dose was escalated by 50 %. Dose escalation was limited to 50 % for any grade 1 or 2 drug-related dermatologic reactions unlikely to be allergic reaction or histamine-release syndromes and to 25 % for any grade 3 or 4 drug-related infusion reaction. With occurrence of the first DLT, the cohort was expanded to three additional patients. If one or more of the three additional patients at that dose level experienced DLT (total of two or more patients with DLT), MTD was reached. MTD was defined as the dose level below which two out of three to six patients experienced a DLT during the first cycle or during 1 complete cycle (28 days).
All adverse events (AE) were graded and reported according to National Cancer Institute Common Terminology Criteria for Adverse Events version 3.0 (NCI CTCAE 3.0). DLT were recorded during Cycle 1 if patients had any of the following: grade 4 neutropenia lasting 5 or more days, grade 3/4 neutropenia with fever and/or infection, grade 4 thrombocytopenia or grade 3 thrombocytopenia with bleeding, grade 3 or 4 allergic reaction, grade 3 or 4 drug-related non-hematologic toxicity (not including grade 3 nausea/vomiting or diarrhea with sub-optimal prophylactic and curative treatment) or a dose delay of more than 2 weeks due to treatment-related AE or laboratory abnormalities. Any grade 3 AE not judged to be clinically significant (e.g., alopecia or drug-related fever) were not considered DLT.

[2] = test system: LHRH-receptor-positive human ovarian cancer cell line (OVCAR-3); design: method as in earlier work; conditions: mice implanted with OVCAR-3, three weekly doses; cited from earlier work
[3] = test system: LHRH-receptor-positive cell lines; conditions: in vitro; cited from earlier work
Excerpt: (§1) A phase 2 clinical trial te ...

breast cancer model = conditions: in vivo breast cancer model; ref Esperance, data on file; cited from earlier work
Excerpt: as §1

[4] = selected toxicities, all cycles, N = 37

CC(C)C[C@H](NC(=O)CNC(=O)[C@H](Cc1ccc(O)cc1)NC(=O)[C@H](CO)NC(=O)[C@H](Cc1c[nH]c2ccccc12)NC(=O)[C@H](Cc1c[nH]cn1)NC(=O)[C@@H]1CCC(=O)N1)C(=O)N[C@@H](CCCNC(=N)N)C(=O)N1CCC[C@H]1C(=O)NCC(=O)N[C@@H](CCCCN)C(=O)N[C@@H](Cc1ccccc1)C(=O)N[C@@H](C)C(=O)N[C@@H](CCCCN)C(=O)N[C@@H](Cc1ccccc1)C(=O)N[C@@H](C)C(=O)N[C@@H](CCCCN)C(=O)N[C@@H](CCCCN)C(=O)N[C@@H](Cc1ccccc1)C(=O)N[C@@H](C)C(=O)N[C@@H](CCCCN)C(=O)N[C@@H](Cc1ccccc1)C(=O)N[C@@H](C)C(=O)N[C@@H](CCCCN)C(=O)N[C@@H](CCCCN)C(=O)N[C@@H](Cc1ccccc1)C(=O)N[C@@H](C)C(=O)N[C@@H](CCCCN)C(=O)O [EP-100] (HELM PEPTIDE1{[Glp].H.W.S.Y.G.L.R.P.G.K.F.A.K.F.A.K.K.F.A.K.F.A.K.K.F.A.K}$$$$V2.0; C-terminus assumed)
IRDRs in the four lowest dose cohorts ([1]; 0.6–1.7 mg/m^2 at dose concentrations of 0.01–0.03 mg/mL): No IRDRs
toxicities / AE of grade 3 or higher ([1]; all 37 patients, all dose levels): No toxicities ≥grade 3; also recorded: no grade 3 or 4 AE
IRDRs (infusion-related dermatologic reactions) reported ([1]; all dose levels): 10 of 37
SAE Disease progression, No. of patients (%) ([1]; dosing 1.35 mg/m^2 qw): 1 (2.7) No. of patients (%)
SAE Disease progression, Outcome ([1]; dosing 1.35 mg/m^2 qw): Death
SAE Disease progression, Relationship to EP-100 ([1]; dosing 1.35 mg/m^2 qw): Unrelated
SAE Gastrointestinal hemorrhage, No. of patients (%) ([1]; dosing 1.35 mg/m^2 qw): 1 (2.7) No. of patients (%)
SAE Gastrointestinal hemorrhage, Outcome ([1]; dosing 1.35 mg/m^2 qw): Resolved
SAE Gastrointestinal hemorrhage, Relationship to EP-100 ([1]; dosing 1.35 mg/m^2 qw): Unlikely related
SAE Peripheral edema, No. of patients (%) ([1]; dosing 1.35 mg/m^2 qw): 1 (2.7) No. of patients (%)
SAE Peripheral edema, Outcome ([1]; dosing 1.35 mg/m^2 qw): Resolved with sequelae
SAE Peripheral edema, Relationship to EP-100 ([1]; dosing 1.35 mg/m^2 qw): Unrelated
SAE Pain, No. of patients (%) ([1]; dosing 1.7 mg/m^2 qw): 1 (2.7) No. of patients (%)
SAE Pain, Outcome ([1]; dosing 1.7 mg/m^2 qw): Ongoing
SAE Pain, Relationship to EP-100 ([1]; dosing 1.7 mg/m^2 qw): Unrelated
SAE Chills, No. of patients (%) ([1]; dosing 11.7 mg/m^2 biw): 1 (2.7) No. of patients (%)
SAE Chills, Outcome ([1]; dosing 11.7 mg/m^2 biw): Resolved
SAE Chills, Relationship to EP-100 ([1]; dosing 11.7 mg/m^2 biw): Unrelated
SAE Hydronephrosis, No. of patients (%) ([1]; dosing 11.7 mg/m^2 biw): 1 (2.7) No. of patients (%)
SAE Hydronephrosis, Outcome ([1]; dosing 11.7 mg/m^2 biw): Resolved
SAE Hydronephrosis, Relationship to EP-100 ([1]; dosing 11.7 mg/m^2 biw): Unrelated
SAE Febrile neutropenia, No. of patients (%) ([1]; dosing 17.5 mg/m^2 biw): 1 (2.7) No. of patients (%)
SAE Febrile neutropenia, Outcome ([1]; dosing 17.5 mg/m^2 biw): Resolved
SAE Febrile neutropenia, Relationship to EP-100 ([1]; dosing 17.5 mg/m^2 biw): Unrelated
SAE Ascites, No. of patients (%) ([1]; dosing 26 mg/m^2 biw): 1 (2.7) No. of patients (%)
SAE Ascites, Outcome ([1]; dosing 26 mg/m^2 biw): Resolved with sequelae
SAE Ascites, Relationship to EP-100 ([1]; dosing 26 mg/m^2 biw): Unlikely related
SAE Fatigue, No. of patients (%) ([1]; dosing 26 mg/m^2 biw): 1 (2.7) No. of patients (%)
SAE Fatigue, Outcome ([1]; dosing 26 mg/m^2 biw): Resolved
SAE Fatigue, Relationship to EP-100 ([1]; dosing 26 mg/m^2 biw): Unrelated
SAE Facial paresis, No. of patients (%) ([1]; dosing 40 mg/m^2 biw): 1 (2.7) No. of patients (%)
SAE Facial paresis, Outcome ([1]; dosing 40 mg/m^2 biw): Ongoing
SAE Facial paresis, Relationship to EP-100 ([1]; dosing 40 mg/m^2 biw): Unrelated
SAE Gastrointestinal obstruction, No. of patients (%) ([1]; dosing 0.6, 0.9 mg/m^2 qw): 2 (5.4) No. of patients (%)
SAE Gastrointestinal obstruction, Outcome ([1]; dosing 0.6, 0.9 mg/m^2 qw): Resolved with sequelae
SAE Gastrointestinal obstruction, Relationship to EP-100 ([1]; dosing 0.6, 0.9 mg/m^2 qw): Unrelated
SAE Pleural effusion, No. of patients (%) ([1]; dosing 11.7, 26 mg/m^2 biw): 2 (5.4) No. of patients (%)
SAE Pleural effusion, Outcome ([1]; dosing 11.7, 26 mg/m^2 biw): Resolved
SAE Pleural effusion, Relationship to EP-100 ([1]; dosing 11.7, 26 mg/m^2 biw): Unrelated
maximum-tolerated dose (MTD) ([1]; highest dose evaluated 40 mg/m^2 twice weekly, IV infusion, 3 of 4 weeks per 28 day cycle): not reached
onset of IRDRs after start of the drug infusion ([1]; in vivo): ≤ 15 min
infusion site hypersensitivity, patients ([1]; n = 4 patients of 37): 10.8%
pain, patients ([1]; one patient of 37): 2.7%
AP (alkaline phosphatase), Grade 1/2 [1, 4]: 1 (2.7) No. of patients (%)
AP (alkaline phosphatase), Grade 3/4 [1, 4]: 0 No. of patients (%)
AST/ALT, Grade 1/2 [1, 4]: 1 (2.7) No. of patients (%)
AST/ALT, Grade 3/4 [1, 4]: 0 No. of patients (%)
Diarrhea, Grade 1/2 [1, 4]: 1 (2.7) No. of patients (%)
Diarrhea, Grade 3/4 [1, 4]: 0 No. of patients (%)
Fatigue, Grade 1/2 [1, 4]: 4 (10.8) No. of patients (%)
Fatigue, Grade 3/4 [1, 4]: 0 No. of patients (%)
Gastroesophageal reflux, Grade 1/2 [1, 4]: 1 (2.7) No. of patients (%)
Gastroesophageal reflux, Grade 3/4 [1, 4]: 0 No. of patients (%)
Hemoglobin, Grade 1/2 [1, 4]: 0 No. of patients (%)
Hemoglobin, Grade 3/4 [1, 4]: 0 No. of patients (%)
Infusion-related dermatologic reactions, Grade 1/2 [1, 4]: 10 (27) No. of patients (%)
Infusion-related dermatologic reactions, Grade 3/4 [1, 4]: 0 No. of patients (%)
Neutrophils, Grade 1/2 [1, 4]: 0 No. of patients (%)
Neutrophils, Grade 3/4 [1, 4]: 0 No. of patients (%)
Platelets, Grade 1/2 [1, 4]: 0 No. of patients (%)
Platelets, Grade 3/4 [1, 4]: 0 No. of patients (%)
Total bilirubin, Grade 1/2 [1, 4]: 0 No. of patients (%)
Total bilirubin, Grade 3/4 [1, 4]: 0 No. of patients (%)
Vomiting, Grade 1/2 [1, 4]: 1 (2.7) No. of patients (%)
Vomiting, Grade 3/4 [1, 4]: 0 No. of patients (%)
number of SAE recorded ([1]; treatment-emergent, 37 patients): Fourteen
decreased appetite, patients ([1]; two patients of 37): 5.4%
time to disappearance of all IRDR symptoms after cessation of the infusion ([1]; typically): ≤ 30 min
in vivo activity [2]: decreased CA-125 levels and tumor regression
effect of combination with pgp substrates (doxorubicin, paclitaxel, vinorelbine, vincristine) and non-pgp substrates (cisplatinum, 5-fluorouracil) [3]: reversion of drug resistance and potentiation of toxicity
tolerability of combination EP-100 with paclitaxel (breast cancer model): well tolerated
